From article PMC4501119, “Cholestenoic acid, an endogenous cholesterol metabolite, is a potent γ-secretase modulator” (Molecular Neurodegeneration, 2015)
“Also recorded” adds a separate entry of the source.

Key:
[1] = system: Aβ42 in CHO-2B7 cells (CHO cells stably overexpressing APP695); assay: Cell-based Aβ sandwich ELISA of conditioned media from CHO-2B7 cells treated 16 h; set-up: species or system Chinese hamster
Protocol: Chinese hamster ovary (CHO) cells stably overexpressing APP695 (CHO-2B7 cells) were grown in Ham’s F-12 medium (Life Technologies) supplemented with 10 % fetal bovine serum and 100 units/ml of penicillin and 100 μg/ml streptomycin. Cells were grown at 37 °C in a humidified atmosphere containing 5 % CO2 in tissue culture plates (Costar). The cells were harvested at confluence and then utilized for biochemical analyses. Compounds were dissolved in dimethyl sulfoxide (DMSO) and screened in CHO-2B7 cells. The cells were incubated for 16 h in the presence of the compound diluted into OptiMEM-reduced serum medium (Life Technologies, Carlsbad, CA, USA) containing 1 % fetal bovine serum.
Monoclonal antibodies to Aβ were generated by the Mayo Clinic Immunology Core facilities (Jacksonville, FL, USA). Ab5 recognizes an epitope in the amino terminus of Aβ (Aβ1-16), recognizes both monomeric and aggregated Aβ, and is human specific. […] Ab 2.1.3 was raised against Aβ35-42 and is specific for Aβx-42. […] Total Aβ level was determined by capture with Ab5 and detected with horseradish peroxidase (HRP)-conjugated 4G8 (a monoclonal antibody against Aβ17-24; Covance, Waltham, MA, USA) with the other Aβ peptides detected with HRP-conjugated Ab5. For the cell-free assay and measuring mouse endogenous Aβ, HRP-conjugated 4G8 was used as the secondary detection antibody. Aβ standards (Bachem, King of Prussia, PA, USA) were prepared by dissolving in hexafluoroisopropanol (HFIP) at 1 mg/ml with sonication, dried under nitrogen, resuspended at 2 mg/ml HFIP, sonicated again and dried under nitrogen. The resulting Aβ was resuspended in 0.01 % ammonium hydroxide, portioned into aliquots in EC buffer, and frozen at −80 °C.

[2] = system: brain mAβ42, mAβ38 and total mAβ; assay: Brain Aβ levels after intraperitoneal injection in wild type mice; assay type: in vivo, mouse (C57BL/6 or CF-1)
Protocol: 25(R)-CA powder was initially dissolved in DMSO (<4.5 % in the final mixture) and then combined with polyethylene glycol (15)-hydroxystearate (Solutol), ethanol, and water at a ratio of (15:10:75). One molar equivalent of sodium hydroxide was added to the mixture. We performed CA intraperitoneal (IP) injections to wild-type mice (C57BL/6 or CF-1). The mice were injected with 25(R)-CA on the right side of the abdomen. The injections have been performed with various time points (30 min, 1 h, 2 h, and 3 h) and with multiple doses (30 mg per kg (mg/kg), 60 mg/kg, 75 mg/kg and 100 mg/kg). The number of each cohort is 6–8. We used 30 mg/kg of CA for the time-course experiments, and for the dose–response experiments the end-point was set at 30 min. The brains and serum are harvested and frozen for brain Aβ extraction.
The mouse brains were harvested at the age of 3 months. The brains were weighed and recorded. The Diethylamine/Sodium Chloride (DEA/NaCl) extraction buffer (0.4 % DEA) was added to each sample and homogenized using a sonicator. The samples were transferred to a poly-carbonate centrifuge tube and spun down at 50,000xg for 30 min at 4 °C. The supernatant was loaded on the vacuum manifold with the appropriate number of HLB Oasis columns. The samples were loaded on the conditioned column, filtered, and eluted using prepared elution buffer (90 % Methanol, 2 % NH4OH). The eluates are concentrated using the Thermo-Savant SpeedVac concentrator for a minimum of 2 h at 55 °C with radiant heat. The concentrated samples are reconstituted in a blocking buffer (0.67 % Bovine serum albumin (BSA)) at the appropriate volume.
Monoclonal antibodies to Aβ were generated by the Mayo Clinic Immunology Core facilities (Jacksonville, FL, USA). […] Total Aβ level was determined by capture with Ab5 and detected with horseradish peroxidase (HRP)-conjugated 4G8 (a monoclonal antibody against Aβ17-24; Covance, Waltham, MA, USA) with the other Aβ peptides detected with HRP-conjugated Ab5. […] Following these steps, the Aβ is monomeric, as determined by size-exclusion chromatography.

[3] = CHO-2B7 cells, dose response, ELISA

SMILES: CC(CCC[C@@H](C)C(=O)O)[C@H]1CCC2C3CC=C4C[C@@H](O)CC[C@]4(C)C3CC[C@@]21C (stereo partly drawn) [Cmpd 2a, 25(R)-cholestenoic acid]
- Aβ38 level [1, 3]: increased
- total Aβ level [1, 3]: without alterations
- EC50 ([1]; Cricetulus griseus, CHO-2B7, 16 h, lowering Aβ42, CHO-2B7 cells, 16 h, ELISA): ~250 nM
- EC90 ([1]; Cricetulus griseus, decreasing Aβ42, CHO-2B7 cells): 3000 nM
- brain Aβ levels ([2]; 30 mg/kg IP, brains harvested after 30 min, 1, 2 and 3 h): no changes
- brain mAβ42, mAβ38 and total mAβ ([2]; 30, 60, 75, 100 mg/kg IP, vs vehicle-injected control, listed as CA): No significant effects; also recorded: did not show acute effects; also recorded: did not affect
